These results are taken from patent US5912183A, “Peptide inhibitors of mitogenesis and motogenesis” (Pharmacia & Upjohn S.p.A., priority 1993, dated 1999).

One experiment deals with T1, GST-SH2 domain of Shc (Homo sapiens, UniProt P29353).
T1 construct: using the Shc SH2 domain, expressed in bacteria as a GST-fusion protein; made in house; host or cells: bacteria
T1 sequence (P29353 488-579 limits assumed): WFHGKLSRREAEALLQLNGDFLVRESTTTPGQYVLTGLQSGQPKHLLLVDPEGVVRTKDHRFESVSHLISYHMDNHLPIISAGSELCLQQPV
Nature of the experiment: BIAcore binding of Shc SH2 domain to immobilised phosphopeptides. The following applies: biosensor; avidin-immobilized biotinylated phosphopeptide. On the procedure:
FIG. 13. […] The same concentration of Shc-SH2 was injected over two biosensor surfaces on which two phosphopeptides had been immobilised. Y1356P is derived from the sequence VNATY^1356 VNVK (SEQ. ID NO: 28) of the receptor tail; Y317P is derived from the sequence DDPSY^317 VNVQ (SEQ. ID NO: 27). Note that both peptides contain the same core (YVNV) but (SEQ. ID NO: 3) different upstream sequences. The initial rapid increase in the response is due to the "bulk effect" of the injected solution.
In vitro binding studies using GST-fusion protein. The region of the Grb2 cDNA corresponding to its SH2 domain (from nucleotide position 256 to nucleotide position 551) was isolated using polymerase chain reaction (PCR) and cloned into the BamHI-EcoRI sites of the bacterial expression plasmid pGEX-2T (GST-Grb2). Cultures of bacteria expressing GST, GST-Grb2 or GST-Shc (Segatto et al., Oncogene 2105-2112 (1993)) were grown for 3-4 hours at 37° C. in LB medium containing 1 mM IPTG. Bacteria were centrifuged, resuspended in 1/100 volume of ice-cold PY buffer, without Triton™ and lysed by sonication. After adding Triton X-100 to 1%, lysates were clarified by centrifugation. Recombinant proteins were purified onto glutathione Sepharose™ (Pharmacia) and used as such for binding assays. For each reaction, about 5 μg of GST, GST-Grb2 or GST-Shc bound to glutathione Seharose was incubated for 2 hrs. at 4° C. with […] of appropriate cell lysate made in PY buffer. Protein complexes were washed 5 times in ice cold PY buffer, eluted and denatured by heating at 95° C. for 3 min in Laemmli buffer, resolved on SDS-PAGE and analyzed by immunoblot.
The basic principles of operation as well as the methodology for obtaining kinetic measurements of SH2 domain interactions using the BIAcore instrument (Pharmacia) have been previously described in detail (Panayotou et al., Mol. Cell. Biol. 13: 3567-3576 (1993), Ponzetto et al., Mol. Cell. Biol. 13: 4600-4608 (1993)). Purified GST-SH2 domains or intact proteins were desalted in BIAcore running buffer (20 mM Hepes, pH 7.4, 150 mM NaCl, 3.4 mM EDTA, 0.005% Tween 20 and 4 mM DTT) and injected over avidin-immobilized, biotinylated phosphopeptides. The amount of phosphopeptides immobilized was normalized by measuring the binding of anti-phosphotyrosine antibodies. Association was measured over a range of protein concentrations and dissociation of bound material was allowed to occur either in buffer flow or upon injection of 20 μM competing, non-biotinylated phosphopetide. Peptide and protein concentrations were calculated by amino acid analysis on an Applied Biosystem amino acid analyzer.
The direct interaction between the SH2 domain of Shc and phosphotyrosine Y^1349 or Y^1356 was confirmed by real-time Biosensor analysis (Panayotou et al., ibid; Felder et al., Mol. Cell. Biol. 13: 1449-1455 (1993)).
The Shc sequence Y^317 VNV (SEQ. ID NO: 3) is identical to one of the two Shc binding sites present in the SF/HGF receptor (FIG. 8). […] The biosensor was used to compare binding of the Shc SH2 domain to the phosphopeptide DDPSY^317 VNVQ (SEQ. ID NO: 27), present on the Shc molecule, and to the phosphopeptide VNATY^1356 VNVK (SEQ. ID NO: 28), present on the SF/HGF receptor. […] Thus Shc-Shc association is not favoured in vivo, and the Shc phosphotyrosine residue Y^317 is available to bind other molecules, rather than to mediate the formation of concatamers.

Another experiment has as its target T2, Grb2 SH2 domain (Homo sapiens, UniProt P62993).
T2 construct: corresponding to its SH2 domain (from nucleotide position 256 to nucleotide position 551); made in house; host or cells: bacteria (pGEX-2T)
Description: BIAcore real-time binding of Grb2 GST-SH2 fusion protein to immobilized phosphopeptide. On the procedure:
FIG. 15. The Grb2 SH2 domain binds to the Y^317 docking site of Shc. Panel A: sensorgrams obtained by injection of a range of Gst-SH2.Grb2 concentrations over the immobilised phosphopeptide derived from the Shc sequence DDPSY^317 VNVQ (SEQ. ID NO: 27). Panel B: effect of competing peptide on the dissociation rate. At the end of the Grb2 injection, buffer or […] of non-biotinylated phosphopeptide were injected. Panel C: analysis of the data shown in panel A. The figure on the left is a plot of the rate of binding versus the relative response for the six different sensorgrams. In the figure on the right, the slopes of each line are plotted against the concentration: the new slope gives the value of the association rate constant.
In vitro binding studies using GST-fusion protein. The region of the Grb2 cDNA corresponding to its SH2 domain (from nucleotide position 256 to nucleotide position 551) was isolated using polymerase chain reaction (PCR) and cloned into the BamHI-EcoRI sites of the bacterial expression plasmid pGEX-2T (GST-Grb2). Cultures of bacteria expressing GST, GST-Grb2 or GST-Shc (Segatto et al., Oncogene 2105-2112 (1993)) were grown for 3-4 hours at 37° C. in LB medium containing 1 mM IPTG. […] Protein complexes were washed 5 times in ice cold PY buffer, eluted and denatured by heating at 95° C. for 3 min in Laemmli buffer, resolved on SDS-PAGE and analyzed by immunoblot.
The basic principles of operation as well as the methodology for obtaining kinetic measurements of SH2 domain interactions using the BIAcore instrument (Pharmacia) have been previously described in detail (Panayotou et al., Mol. Cell. Biol. 13: 3567-3576 (1993), Ponzetto et al., Mol. Cell. Biol. 13: 4600-4608 (1993)). […] Association was measured over a range of protein concentrations and dissociation of bound material was allowed to occur either in buffer flow or upon injection of 20 μM competing, non-biotinylated phosphopetide. Peptide and protein concentrations were calculated by amino acid analysis on an Applied Biosystem amino acid analyzer. […]

Each structure is given as a SMILES string. Residues, ends and D or L forms follow the SMILES beside them.

T2 sequence (P62993 60-152 limits assumed): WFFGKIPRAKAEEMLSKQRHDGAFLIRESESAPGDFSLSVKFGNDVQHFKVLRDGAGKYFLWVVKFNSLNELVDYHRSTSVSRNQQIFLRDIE

For `CC(C)[C@H](NC(=O)[C@H](CC(N)=O)NC(=O)[C@@H](NC(=O)[C@H](Cc1ccc(OP(=O)(O)O)cc1)NC(=O)[C@H](CO)NC(=O)[C@@H]1CCCN1C(=O)[C@H](CC(=O)O)NC(=O)[C@@H](N)CC(=O)O)C(C)C)C(=O)N[C@@H](CCC(N)=O)C(=O)O` [DDPSY^317* VNVQ, H-Asp-Asp-Pro-Ser-Tyr*-Val-Asn-Val-Gln-OH] (HELM PEPTIDE1{D.D.P.S.[O=C([C@H](Cc1ccc(OP(=O)(O)O)cc1)N[*:1])[*:2]].V.N.V.Q}$$$$V2.0), the “Binding of Shc SH2 domain to immobilised phosphopeptide” value on GST-SH2 domain of Shc is listed as “much more weakly”. On Grb2 SH2 domain (Grb2 GST-SH2 over immobilized phosphopeptide, read-out: K^ass (association rate constant)), the kon amounted to 260000 M⁻¹ s⁻¹. Moreover, the Kd at Grb2 SH2 domain (from Kdiss and K^ass, read-out: Overall affinity) came to 153 nM. In addition, the “Kdiss (dissociation rate)” value at Grb2 SH2 domain (measured in buffer and in the presence of competing phosphopeptide to prevent re-binding) is listed as 0.04 S^-1.
